Data published in patent US20070166547A1, “Use of a layer consisting of hydrophobic linear, or two-dimensional polycyclic aromatics as a barrier layer or an encapsulation and electric components constructed with a layer of this type and comprising organic polymers” (priority 2003, published 2007).

Tests used:
thymus = assay: Morphine abstinence model: thymus condition; assay type: in vivo, rats; settings: compound alone
[1] = system: synthase of nitrogen oxide (NOC); assay: Morphine abstinence model: activity of synthase of nitrogen oxide (radiometric, [3H]L-citrulline); assay type: in vivo, rats Wistar; settings: for Activity of NOC, Hypothalamus, Control + Compound / Activity of NOC, Mesencephalon, Control + Compound: compound alone 20.0 mg/kg intramuscularly; for Activity of NOC, Hypothalamus, Control + Morphine + compound / Activity of NOC, Mesencephalon, Control + Morphine + compound: morphinized rats then compound 20.0 mg/kg intramuscularly
[2] = Polarographic study of electrochemical reduction (electrochemical activity); assay type: physicochemical; settings: for number of electrons participating in the reduction: calculated with the Geirovsky-Ilkovich equation; for i, mkA (polarographic wave current) / −E1/2, V (half-wave potential vs SCE): 37° C., forward trace, average for the group; for i, mkA (polarographic wave current): 9·10^−4 M; for half-wave potential more positive on reverse stroke than on forward stroke: reverse stroke vs forward stroke
Procedure, shortened: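 DC polarography at 37 °C on a dropping mercury electrode (0.5 s drop) against SCE with a Pt auxiliary electrode. Compounds at 9·10^−4 M in N2-purged 2.0% NaCl at pH 7.0–7.6, scanned 0 to −0.5 V at 10.0 mV/s. E1/2 and ilim were determined graphically; electron number was derived by Heyrovsky–Ilkovič analysis.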

[3] = system: indicator enzymes in blood plasma; assay: Morphine abstinence model: indicator enzymes AST, ALT, γ-GTP in blood plasma; assay type: in vivo, rats Wistar; settings: for ALT, Ci, mE/l, Control + compound / AST, Ci, mE/l, Control + compound / γ-GTP, Ci, mE/l, Control + compound: compound alone 20.0 mg/kg intramuscularly; for ALT, Ci, mE/l, control + Morphine + Compound / AST, Ci, mE/l, control + Morphine + Compound / γ-GTP, Ci, mE/l, control + Morphine + Compound: morphinized rats then compound 20.0 mg/kg intramuscularly
Procedure: The experiments were carried out on rats in series of 7 animals on each compound according to the invention. Non-morphinized animal with not administered with compounds according to the invention were used as a control group. […] Then the rats were decapitated, the blood from somnolent arteries was collected in test tubes with solution EDTA as an anticoagulant, centrifuged at 1500 g for 15 minutes at 4° C.
To estimate possible hepatoprotective action of the compounds according to the invention under conditions of development of an oxidizing stress in the liver cells, effect of these compounds on the most important biochemical blood indexes, in particular, on the content in blood plasma of indicator enzyme of aspartateaminotransferase (AST), alanineaminotransferase (ALT), γ-glutamiletranspeptidase (γ-GTP) was investigated. The content of enzymes was estimated by their catalyzing activity in blood plasma.
The activity of AST, ALT and γ-GTP was determined by means of diagnostic sets DiaSys, Germany.

[4] = system: aggregation of thrombocytes; assay: ADP-induced aggregation of thrombocytes after intravenous administration (in vivo); parameters: species or system rabbit
Procedure: The experiments were carried out on male rabbits of the “Chinchilla” breed having a mass of 2.7±0.3 kg. 18-24 hours prior to the experiment they were deprived of feed while preserving free access to water.
To obtain plasma enriched with thrombocytes, blood was taken from a cut of a marginal vein of the rabbit ear, the sample was stabilized with 3.8% of sodium citrate solution in a ratio of 9:1 and centrifuged at 200 g (1000 rev/min) for 10 minutes. The top supernatant layer enriched with thrombocytes was transferred by an automatic dropper into a silicone test tube and kept at 37° C. The plasma enriched with thrombocytes contained, on the average, […]. If this content exceeded the specified 3×10^8 blood platelets in 1 liter, this sample was diluted to the necessary concentration with plasma deprived of thrombocytes, which was obtained by centrifuging blood at 650 g during 10 minutes.
The measurements of the optical density of the samples were made on two-channel aggregometer of the “Chronolog” Company (USA). A flask containing 490 mkl of plasma rich with thrombocytes was placed in a device, into which a magnetic agitator covered with Teflon was lowered. The index of maximum amplitude of aggregation (MA) in percent of a fall of the plasma optical density under effect of the aggregation inductor was recorded. The control index MA of plasma was compared with the MA of plasma incubated for 3 minutes with different concentrations of the compounds: from 10^−3 to 10^−7 in vitro experiments or with plasma obtained 15, 30, 60 and 120 minutes after intravenous administration of different doses of the compounds in vivo experiments.
The process of aggregation of thrombocytes was recorded with the help of a computer; on the monitor screen the there were depicted curves reflecting changes of the optical density of the plasma enriched which was taken as a standard 100% compared to the optical density of the non-thrombocyte plasma taken for 0% content of thrombocytes.
The antiaggregative capability of compounds 2, 15, 21, 37, according to the invention was tested in experiments in vivo. Introduced to the test animals intravenously were an aggregation inductor ADP at a concentration of 10^−5 M was and then the compounds according to the invention. The doses of the compounds were in a range from 15 to 60 mg/kg.
For leveling the different effects of the compounds in different days due the ambient temperature, humidity and other parameters, 2 animals of each series were taken for experiments every day. Under “series” there is understood a group of 6 animals used for studying one of the doses of the compounds.
The blood for obtaining plasma enriched with thrombocytes was taken from marginal vein of the rabbit ear: in the control group—directly before introducing the tested compounds; in investigated groups—15 minutes after introducing these compounds and then after 30, 60, 120 minutes and so on up to the moment when the effect of suppression of aggregation disappeared.
The quantity of thrombocytes was counted before the experiment and at the end thereof in each plasma sample.

Row | Compound | Nitrites, thymus Supernatant, Administration of compounds (thymus) | Thymus mass, Administration of compounds (thymus) [mg] | Activity of NOC, Hypothalamus, Control + Compound [1] | Activity of NOC, Mesencephalon, Control + Compound [1] | Activity of NOC, Hypothalamus, Control + Morphine + compound [1] | Activity of NOC, Mesencephalon, Control + Morphine + compound [1] | number of electrons participating in the reduction [2] | i, mkA (polarographic wave current) ([2]; pH 7.0) [mkA] | −E1/2, V (half-wave potential vs SCE) ([2]; pH 7.0) [V] | i, mkA (polarographic wave current) ([2]; pH 7.2) [mkA] | −E1/2, V (half-wave potential vs SCE) ([2]; pH 7.2) [V] | i, mkA (polarographic wave current) ([2]; pH 7.4) [mkA] | −E1/2, V (half-wave potential vs SCE) ([2]; pH 7.4) [V] | i, mkA (polarographic wave current) ([2]; pH 7.6) [mkA] | ALT, Ci, mE/l, Control + compound [3] [mE/l] | AST, Ci, mE/l, Control + compound [3] [mE/l] | γ-GTP, Ci, mE/l, Control + compound [3] [mE/l] | ALT, Ci, mE/l, control + Morphine + Compound [3] [mE/l] | AST, Ci, mE/l, control + Morphine + Compound [3] [mE/l] | γ-GTP, Ci, mE/l, control + Morphine + Compound [3] [mE/l] | other results
1 | Nc1cccc2c(=O)[nH][nH]c(=O)c12.[Na] [Compound 15, sodium salt of 5-amino-benzo[d]-3H-pyridazine-1,4-dione] | 0.407 ± 0.02 nmol/mg of protein | 298 ± 25 | 5.45 ± 0.24 pmol/min/mg of protein | 2.60 ± 0.29 pmol/min/mg of protein | 5.26 ± 0.28 pmol/min/mg of protein | 1.83 ± 0.23 pmol/min/mg of protein | 4.09 | 0.23 ± 0.03 | 0.092 ± 0.02 | 0.30 ± 0.01 | 0.09 ± 0.01 | 0.29 ± 0.02 | 0.092 ± 0.02 | 0.31 ± 0.02 | 113.48 ± 2.39 | 173.46 ± 5.63 | 7.03 ± 2.82 | 121.08 ± 5.04 | 195.57 ± 18.68 | 10.69 ± 1.84 | −E1/2, V (half-wave potential vs SCE) ([2]; pH 7.6): 0.09 ± 0.01 V; half-wave potential more positive on reverse stroke than on forward stroke [2]: 30.0 mV; MA, %, After 15 minutes ([4]; dose 15.0 mg/kg intravenously): 42.8 ± 1.8 %; MA, %, After 30 minutes ([4]; dose 15.0 mg/kg intravenously): 41.8 ± 1.5 %; MA, %, After 60 minutes ([4]; dose 15.0 mg/kg intravenously): 45.6 ± 1.5 %; MA, %, After 120 minutes ([4]; dose 15.0 mg/kg intravenously): 48.3 ± 2.3 %; MA, %, After 15 minutes ([4]; dose 30.0 mg/kg intravenously): 43.2 ± 2.2 %; MA, %, After 30 minutes ([4]; dose 30.0 mg/kg intravenously): 41.8 ± 1.9 %; MA, %, After 60 minutes ([4]; dose 30.0 mg/kg intravenously): 37.8 ± 1.8 %; MA, %, After 120 minutes ([4]; dose 30.0 mg/kg intravenously): 58.1 ± 1.7%; MA, %, After 15 minutes ([4]; dose 60.0 mg/kg intravenously): 43.1 ± 1.5 %; MA, %, After 30 minutes ([4]; dose 60.0 mg/kg intravenously): 41.3 ± 1.5 %; MA, %, After 60 minutes ([4]; dose 60.0 mg/kg intravenously): 44.7 ± 0.8%; MA, %, After 120 minutes ([4]; dose 60.0 mg/kg intravenously): 47.2 ± 1.6%
2 | O=c1[nH][nH]c(=O)c2nccnc12.[Li] [Compound 25, lithium salt of pyrazine[2,3-d]-6H-pyridazine-5,8-dione] | 0.417 ± 0.02 nmol/mg of protein | 254 ± 14 | 5.88 ± 0.27 pmol/min/mg of protein | 2.65 ± 0.43 pmol/min/mg of protein | 5.23 ± 0.27 pmol/min/mg of protein | 1.97 ± 0.27 pmol/min/mg of protein | 3.72 | 0.32 ± 0.03 | 0.16 ± 0.02 | 0.33 ± 0.04 | 0.19 ± 0.02 | 0.34 ± 0.03 | 0.175 ± 0.01 | 0.34 ± 0.02 | 115.27 ± 1.09 | 177.34 ± 6.13 | 7.57 ± 1.93 | 121.96 ± 3.4 | 196.46 ± 15.34 | 11.37 ± 1.54 | −E1/2, V (half-wave potential vs SCE) ([2]; pH 7.6): 0.16 ± 0.015 V; half-wave potential more positive on reverse stroke than on forward stroke [2]: 20.0 mV
3 | O=c1[nH][nH]c(=O)c2c(Br)ncnc12.[K] [Compound 37, potassium salt of 4-bromine-pyrimido[4,5-D]-6H-pyridazine-5,8-dione] | 0.410 ± 0.01 nmol/mg of protein | 263 ± 21 | 5.61 ± 0.22 pmol/min/mg of protein | 2.62 ± 0.27 pmol/min/mg of protein | 5.59 ± 0.22 pmol/min/mg of protein | 1.85 ± 0.30 pmol/min/mg of protein | – | – | – | – | – | – | – | – | 113.84 ± 2.0 | 174.82 ± 4.91 | 8.14 ± 2.64 | 120.84 ± 5.20 | 193.58 ± 14.18 | 10.32 ± 2.67 | MA, %, After 15 minutes ([4]; dose 15.0 mg/kg intravenously): 42.9 ± 1.6 %; MA, %, After 30 minutes ([4]; dose 15.0 mg/kg intravenously): 41.9 ± 1.6 %; MA, %, After 60 minutes ([4]; dose 15.0 mg/kg intravenously): 45.9 ± 1.6%; MA, %, After 120 minutes ([4]; dose 15.0 mg/kg intravenously): 48.7 ± 2.1%; MA, %, After 15 minutes ([4]; dose 30.0 mg/kg intravenously): 43.5 ± 2.0 %; MA, %, After 30 minutes ([4]; dose 30.0 mg/kg intravenously): 42.0 ± 1.4 %; MA, %, After 60 minutes ([4]; dose 30.0 mg/kg intravenously): 41.6 ± 1.4 %; MA, %, After 120 minutes ([4]; dose 30.0 mg/kg intravenously): 58.4 ± 1.7%; MA, %, After 15 minutes ([4]; dose 60.0 mg/kg intravenously): 43.4 ± 1.8 %; MA, %, After 30 minutes ([4]; dose 60.0 mg/kg intravenously): 42.4 ± 0.7 %; MA, %, After 60 minutes ([4]; dose 60.0 mg/kg intravenously): 46.2 ± 2.0%; MA, %, After 120 minutes ([4]; dose 60.0 mg/kg intravenously): 47.3 ± 1.7%
